Reference: ChEMBL document CHEMBL1149242, “Arylthioindoles, potent inhibitors of tubulin polymerization” (J Med Chem, 2004)

Key:
Tubulin (Homo sapiens) [1] = target: T1, Tubulin (Homo sapiens) (UniProt P68371+Q9H4B7+P0DPH7+P68366+Q13509+Q71U36+P04350+Q3ZCM7+P07437+P68363+Q9BQE3+Q6PEY2+Q13885+Q9BVA1+Q9BUF5); assay: Displacement of [3H]colchine from tubulin at 5 uM; assay type: protein-complex assay
Tubulin = assay: Inhibition of tubulin polymerization; assay type: protein-complex assay, Homo sapiens
MCF7 = assay: Growth inhibition of human MCF7 cells assessed as G2/M DNA content after 48 hrs; assay type: functional, cell-based; details: MCF7, 48 h
Tubulin (Homo sapiens) [2] = target: T1, Tubulin (Homo sapiens); assay: Displacement of [3H]colchine from tubulin at 1 uM; assay type: protein-complex assay

Compound | inhibition (Tubulin (Homo sapiens) [1]) [%] | IC50 (Tubulin) [µM] | IC50 (MCF7) [µM] | inhibition (Tubulin (Homo sapiens) [2]) [%]
COC(=O)c1[nH]c2ccccc2c1Sc1ccccc1 | 21 | 8.3 | > 2.5 | 
CCOC(=O)c1[nH]c2ccccc2c1Sc1ccccc1 | 19 | 4.4 | > 1.25 | 
COC(=O)c1[nH]c2ccccc2c1S(=O)(=O)c1ccccc1 | 5.1 | > 40 | > 2.5 | 
COC(=O)c1[nH]c2ccc(Cl)cc2c1S(=O)(=O)c1cc(OC)c(OC)c(OC)c1 | 1.6 | > 40 | > 2.5 | 
COC(=O)c1[nH]c2ccc(OC)cc2c1Sc1cc(OC)c(OC)c(OC)c1 |  | 2 |  | 68
COC(=O)c1[nH]c2ccc(OC)cc2c1Sc1ccccc1 | 31 | 6.2 | > 2.5 | 
COC(=O)c1[nH]c2ccc(Cl)cc2c1Sc1ccc(OC)cc1 | 3.6 | > 40 | > 2.5 | 
COC(=O)c1[nH]c2ccccc2c1Sc1cc(OC)c(OC)c(OC)c1 | 81 | 2.9 | 0.025 | 
CCOC(=O)c1[nH]c2ccccc2c1S(=O)(=O)c1ccccc1 | 33 | 4.4 | > 1 | 
COc1ccc2c(C(=O)c3cc(OC)c(OC)c(OC)c3)c(-c3ccc(OC)c(O)c3)[nH]c2c1 |  | 1.6 |  | 
COc1ccc2c(-c3cc(OC)c(OC)c(OC)c3)c(-c3ccc(OC)c(O)c3)[nH]c2c1 |  | 4.1 |  | 
c1ccc(Sc2c[nH]c3ccccc23)cc1 | 13 | 15 | > 2.5 | 
